Our source for the TGI values is PubChem BioAssay (NCI).

The structures appear in SMILES notation.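 Interpolation was linear, between the two tested concentrations surrounding the appropriate level; five concentrations were tested over 48 hours in 96-well plates. TGI denotes the concentration required for complete inhibition of growth.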

Some test systems named below: ACHN renal; EKVX NSCLC; HCT-15 colon; HOP-92 NSCLC; HT29 colon; KM12 colon; LOX IMVI melanoma; MDA-MB-435; NCI-H226 lung; NCI/ADR-RES ovarian; OVCAR-8 ovarian; RPMI-8226 leukemia; SF-268 CNS; SK-MEL-5 melanoma; SK-OV-3 ovarian; SNB-75 CNS; SW-620 colon; TK-10 renal; UO-31 renal; SK-MEL-2 melanoma.
Common to all, as to experiment: inhibition of tumour cell growth, NCI panel, 48 h

On to `CCOC(=O)C1=C(C)OC(=O)[C@@]2(OC)C=C(Cl)[C@@]12C`, for which the TGI with ACHN renal, with EKVX NSCLC, in the assay with HCT-15 colon, in the assay with HOP-92 NSCLC, in the assay with HT29 colon and in the assay with KM12 colon was greater than 100 µM throughout. The TGI with LOX IMVI melanoma, in the assay with MDA-MB-435, with NCI-H226 lung, with NCI/ADR-RES ovarian, with OVCAR-8 ovarian and with RPMI-8226 leukemia was greater than 100 µM in each case. Moreover, the TGI in the assay with SF-268 CNS, with SK-MEL-5 melanoma, with SK-OV-3 ovarian, in the assay on SNB-75 CNS, in the assay on SW-620 colon and in the assay with TK-10 renal was greater than 100 µM throughout. For the same compound, in the assay on UO-31 renal, the TGI is greater than 100 µM.
Regarding `CC(=O)OC(C)c1cc2c(s1)C(=O)c1scc(C(C)OC(C)=O)c1C2=O` (stereo not given), the TGI with ACHN renal was 0.628 µM; in the assay on EKVX NSCLC, 2.2 µM; in the assay on HCT-15 colon, 0.381 µM; in the assay on HOP-92 NSCLC, 4.58 µM; in the assay with HT29 colon, 3.53 µM; in the assay on KM12 colon, 0.359 µM. For the same compound, the TGI with LOX IMVI melanoma is greater than 100 µM; in the assay with MDA-MB-435, 0.0815 µM; in the assay on NCI-H226 lung, 4.04 µM; in the assay on NCI/ADR-RES ovarian it was 0.802 µM; with OVCAR-8 ovarian, 0.546 µM; with SF-268 CNS it was 0.504 µM. Besides, the TGI turned out to be 0.208 µM in the assay with SK-MEL-5 melanoma; 4.33 µM in the assay on SK-OV-3 ovarian; 0.332 µM in the assay on SNB-75 CNS; 1.83 µM in the assay with TK-10 renal; 0.451 µM in the assay on UO-31 renal.
Take `Cc1ccc(S(=O)(=O)/N=C(\N)N(C)N=O)cc1`: the TGI in the assay with EKVX NSCLC, in the assay with HCT-15 colon, with HOP-92 NSCLC, in the assay with HT29 colon, in the assay with KM12 colon and with LOX IMVI melanoma was greater than 100 µM in each case. Further, the TGI in the assay with MDA-MB-435, with NCI-H226 lung, in the assay on NCI/ADR-RES ovarian, in the assay with OVCAR-8 ovarian, in the assay with RPMI-8226 leukemia and in the assay on SF-268 CNS was greater than 100 µM in each case. The TGI in the assay on SK-MEL-2 melanoma, with SK-OV-3 ovarian, with SNB-75 CNS, in the assay on SW-620 colon, in the assay on TK-10 renal and with UO-31 renal was greater than 100 µM each time.
Turning to `c1ccc(C2SCc3nc4cc5ccccc5cc4n32)cc1` (stereo not given), the TGI with ACHN renal, in the assay on EKVX NSCLC, in the assay on HCT-15 colon, in the assay with HOP-92 NSCLC, in the assay on HT29 colon and in the assay on KM12 colon was greater than 100 µM each time. The TGI in the assay with LOX IMVI melanoma, in the assay on MDA-MB-435, in the assay with NCI-H226 lung, with NCI/ADR-RES ovarian, with OVCAR-8 ovarian and in the assay on RPMI-8226 leukemia was greater than 100 µM in each case. For the same compound, the TGI in the assay on SF-268 CNS, in the assay with SK-MEL-2 melanoma, with SK-OV-3 ovarian, with SNB-75 CNS, in the assay with SW-620 colon and in the assay on TK-10 renal was greater than 100 µM each time. This compound gave a TGI in the assay on UO-31 renal greater than 100 µM.
As to `Cc1cccc(/C=C2\CCCc3ccccc3C2=O)c1`, the TGI with ACHN renal worked out at 86.6 µM; in the assay with EKVX NSCLC, 57.1 µM; in the assay on HCT-15 colon, 44.9 µM; in the assay with HOP-92 NSCLC, 58.5 µM; in the assay on HT29 colon, 46.6 µM; with KM12 colon, 26.1 µM. Further, the TGI in the assay on LOX IMVI melanoma is 37 µM; with MDA-MB-435, 37 µM; in the assay on NCI-H226 lung, 40.8 µM; in the assay with NCI/ADR-RES ovarian, 69.2 µM; with OVCAR-8 ovarian, 78.3 µM; in the assay with RPMI-8226 leukemia, 45.8 µM. In addition, the TGI in the assay with SF-268 CNS was 29.6 µM; in the assay with SK-MEL-2 melanoma it was 30.8 µM; in the assay on SK-OV-3 ovarian, greater than 100 µM; in the assay with SNB-75 CNS it was greater than 100 µM; in the assay on SW-620 colon, 30.7 µM; with TK-10 renal, greater than 100 µM. Moreover, the TGI in the assay with UO-31 renal was greater than 100 µM.
For the compound `O1C2C1C1OC1C1OC1C1OC21` (stereo not given), the TGI in the assay on ACHN renal, in the assay with EKVX NSCLC, with HCT-15 colon, with HOP-92 NSCLC, in the assay on HT29 colon and in the assay with KM12 colon was greater than 100 µM throughout. Moreover, the TGI with LOX IMVI melanoma, with MDA-MB-435, with NCI-H226 lung, in the assay with NCI/ADR-RES ovarian, in the assay on OVCAR-8 ovarian and with SF-268 CNS was greater than 100 µM each time. Further, the TGI in the assay with SK-MEL-2 melanoma, in the assay on SK-MEL-5 melanoma, in the assay on SK-OV-3 ovarian, with SNB-75 CNS, in the assay with TK-10 renal and in the assay on UO-31 renal was greater than 100 µM in each case.
For `O=C(O)c1cc2cc(c1)N=Cc1ccccc1OCc1cccc(n1)COc1ccccc1C=N2`, the TGI with ACHN renal, with EKVX NSCLC, in the assay with HCT-15 colon, with HOP-92 NSCLC, in the assay on HT29 colon and with KM12 colon was greater than 25 µM throughout. The TGI in the assay on MDA-MB-435 is 8.25 µM; with NCI-H226 lung, greater than 25 µM; in the assay on NCI/ADR-RES ovarian, 15.4 µM; in the assay on OVCAR-8 ovarian, greater than 25 µM; with RPMI-8226 leukemia it was 22 µM; in the assay on SF-268 CNS it was greater than 25 µM. Further, the TGI with SK-MEL-2 melanoma, in the assay with SK-OV-3 ovarian, in the assay with SNB-75 CNS, in the assay on SW-620 colon, with TK-10 renal and in the assay on UO-31 renal was greater than 25 µM each time.
As to `COc1ccc(N=C2C(=Nc3ccc(OC)cc3)N(S(=O)(=O)c3ccccc3)C(=S)N2c2ccccc2)cc1`, the TGI in the assay with ACHN renal, in the assay on EKVX NSCLC, with HCT-15 colon, in the assay on HOP-92 NSCLC, in the assay with HT29 colon and in the assay on KM12 colon was greater than 100 µM in each case. Besides, the TGI in the assay with MDA-MB-435, in the assay with NCI-H226 lung, in the assay with NCI/ADR-RES ovarian, in the assay with OVCAR-8 ovarian, in the assay with RPMI-8226 leukemia and with SF-268 CNS was greater than 100 µM each time. The TGI in the assay with SK-MEL-2 melanoma, with SK-MEL-5 melanoma, in the assay with SK-OV-3 ovarian, in the assay with SNB-75 CNS, in the assay on SW-620 colon and with TK-10 renal was greater than 100 µM in each case. The TGI with UO-31 renal is greater than 100 µM.
Turning to `CCn1c(-c2ccc(F)cc2)nc2c1C(=O)c1ccccc1C2=O`, the TGI with ACHN renal, in the assay on EKVX NSCLC, in the assay with HCT-15 colon, in the assay with HOP-92 NSCLC, in the assay on HT29 colon and in the assay with KM12 colon was greater than 100 µM each time. Further, the TGI with MDA-MB-435, in the assay with NCI-H226 lung, in the assay on NCI/ADR-RES ovarian, in the assay on OVCAR-8 ovarian, in the assay with RPMI-8226 leukemia and in the assay on SF-268 CNS was greater than 100 µM each time. Also, the TGI with SK-MEL-5 melanoma, in the assay with SK-OV-3 ovarian, in the assay with SNB-75 CNS, in the assay with SW-620 colon and in the assay with TK-10 renal was greater than 100 µM throughout.
For the compound `CC(=O)OC[C@@H]1[C@H]2CC[C@]3(C)[C@@H](OC(C)=O)CC[C@H]3[C@@H]2CC[C@H]1C1(C)SCCS1`, the TGI in the assay with ACHN renal, in the assay with EKVX NSCLC, in the assay on HCT-15 colon, in the assay with HOP-92 NSCLC, with HT29 colon and in the assay with KM12 colon was greater than 25 µM throughout. Also, the TGI in the assay with LOX IMVI melanoma, with MDA-MB-435, with NCI-H226 lung, with NCI/ADR-RES ovarian, in the assay on OVCAR-8 ovarian and with RPMI-8226 leukemia was greater than 25 µM each time. The TGI with SF-268 CNS, in the assay with SK-MEL-5 melanoma, in the assay with SNB-75 CNS, in the assay with SW-620 colon, in the assay with TK-10 renal and in the assay on UO-31 renal was greater than 25 µM in each case.
In the case of `N#Cc1nc(COCc2ccccc2)oc1N`, the TGI in the assay on ACHN renal, in the assay on EKVX NSCLC, with HCT-15 colon, with HOP-92 NSCLC, with HT29 colon and in the assay with KM12 colon was greater than 100 µM throughout. The TGI in the assay with LOX IMVI melanoma, with MDA-MB-435, in the assay on NCI-H226 lung, in the assay on NCI/ADR-RES ovarian, in the assay with OVCAR-8 ovarian and in the assay on RPMI-8226 leukemia was greater than 100 µM each time. The TGI in the assay with SF-268 CNS, with SK-MEL-2 melanoma, with SK-OV-3 ovarian, in the assay with SNB-75 CNS, in the assay on SW-620 colon and with TK-10 renal was greater than 100 µM throughout. This compound had a TGI in the assay with UO-31 renal greater than 100 µM.
As for `NCCCCN(CCCN)C(=O)c1ccccc1`, the TGI in the assay with ACHN renal, in the assay on EKVX NSCLC, in the assay on HCT-15 colon, with HOP-92 NSCLC, in the assay on HT29 colon and in the assay with KM12 colon was greater than 100 µM in each case. The TGI with MDA-MB-435, in the assay with NCI-H226 lung, in the assay with NCI/ADR-RES ovarian, in the assay on OVCAR-8 ovarian, in the assay on RPMI-8226 leukemia and with SF-268 CNS was greater than 100 µM throughout. For the same compound, the TGI in the assay on SK-MEL-2 melanoma, with SK-MEL-5 melanoma, in the assay on SK-OV-3 ovarian, in the assay on SNB-75 CNS, with SW-620 colon and in the assay on TK-10 renal was greater than 100 µM in each case. This compound returned a TGI in the assay with UO-31 renal greater than 100 µM.
